We go through five compounds from publication doi:10.1101/2020.08.03.235622v1 (bioRxiv, 2020).

Where two headings read alike, the source gives them in different places.

In one data set the test system is flagella (fliC). As to conditions: cited from earlier work.
The subject of data set [1] is P. aeruginosa T3SS gene transcription (exoT, exoS, dsbA). Description: qPCR of T3SS genes in P. aeruginosa. It counts as cell-based, Pseudomonas aeruginosa. As to conditions: 60 μM cyclic peptomer; for transcription of exoT: PA103, low calcium, 50 μM MBX1641, 3 hrs.
Data set [2] concerns P. aeruginosa PAO1 T3SS (ExoS, ExsE). It counts as cell-based, Pseudomonas aeruginosa.
A further data set relates to P. aeruginosa PA103 T3SS. It counts as cell-based, Pseudomonas aeruginosa.
In another data set the test system is Salmonella SPI-1 T3SS. It counts as cell-based, Salmonella enterica Typhimurium.
A further data set concerns HeLa cells. Description: Host cell viability by LDH release. The conditions noted are these: 9 μM, infected HeLa cells. It counts as cell-based, human.

With `O=[N+]([O-])c1cc(CN2CCN(c3ccccc3)CC2)c(O)c2ncccc12` [INP1750], the “lowest known inhibitory concentration (~), fliC/fla” value in the data set on flagella (fliC) was ~80 µM.

Regarding `CC(Oc1ccc(Cl)cc1Cl)C(=O)NCc1ccc2c(c1)OCO2` (centres unmarked) [MBX1641, reference compound], the “transcription of exoT” value in data set [1] is recorded as “did”.

For the compound “Propylamine, Benzylamine, L-Leu, L-Ile, D-Leu, and D-Phe (PBLLDD) (head to tail) [4EpDN]”, in data set [2], the “amount of secreted ExoS” value is “significantly reduced” and the “secretion of the regulator ExsE” value is “did not significantly impact secretion”. For the same compound, in the data set on P. aeruginosa PA103 T3SS, the “T3SS inhibitory activity (ExoU secretion), in words” value is on record as “improved activity”. Moreover, the IC50 in the data set on P. aeruginosa PA103 T3SS (read-out: IC50, ExoU secretion (PA, Psc/Ysc)) stood at 3.9 µM. The “expression of the effectors exoS and exoT” value in data set [1] (P. aeruginosa PAO1 lacking all known efflux pumps, 3 hrs) is listed as “did not affect expression”. Moreover, in the data set with Salmonella SPI-1 T3SS, the “concentration at which inhibition of SipA secretion was observed” value was ~ 1.4 μM and the “concentration at which inhibition of SipC secretion was observed” value is given as ~ 1 μM. Also, in the data set with HeLa cells, the “host cell viability as assayed by LDH release” value is given as “without affecting host cell viability”.

On to `O=[N+]([O-])c1cc(CN2CCN(c3ccc(F)cc3)CC2)c(O)c2ncccc12` [INP1855], for which the “lowest known inhibitory concentration (~), fliC/fla” value in the data set with flagella (fliC) is ~30 µM.

For the compound “Propylamine, Benzylamine, D-Leu, L-Ile, L-Leu, and D-Phe (PBDLLD) (head to tail) [1EpDN]”, the “amount of secreted ExoS” value in data set [2] was “significantly reduced”. Besides, the IC50 in the data set on P. aeruginosa PA103 T3SS (read-out: IC50, inhibition of T3SS effector (ExoU) secretion in P. aeruginosa) was ~8 µM. In data set [1], the “transcription of exoT” value is listed as “did not inhibit transcription of exoT”.
